For assay [1], the system named is PDBu receptor (phorboid receptor) of murine brain membranous fraction (BMF). Kind of assay: PDBu binding inhibiting activity (PBIA): inhibition of 3H-PDBu binding to murine brain membranous fraction. Further details: species or system murine (mouse, NFS strain). On the procedure:
Pooled murine brains from approximately 2 month old mice, NFS strain, were minced with scissors, suspended in 1 mM triethanolamine-HCl, pH 7.4, and disrupted with a polytron P-10 (Brinkman). This and all subsequent steps were performed at 4° C. The homogenate was centrifuged for 10 minutes at 1700 xg; the supernate was removed and centrifuged for 60 minutes at 105,000 xg. The resulting pellet was suspended in one-fourth of the initial volume of PBS. The suspension was aliquoted into a small volume and stored at -70° C.
The binding of ^3 H-PDBu to BMF or soluble receptors was performed in duplicate in 12×75 mm disposable glass tubes (Kimax) both in the absence and presence of 20 μg/ml unlabeled PDBu; the binding mixture contained 5 ng of ^3 H-PDBu (4×10^4 cpm), 0.2% final concentration of DMSO and BMF (50 μg protein) or soluble receptors in a total volume of 0.25 ml binding buffer (BB) consisting of Dulbecco's minimum essential medium (DMEM) containing bovine serum albumin (BSA 1 mg/ml) and N,N,-bis-(2-hydroxyethyl)-2-amino-ethane sulfonic acid (BES, 5 mM), adjusted to pH 6.8. After incubation for 30 minutes at 23° C. the tubes were chilled, 0.5 ml cold 4% calf serum (Colorado Serum Co., Denver, Colo.) and 0.7 ml cold polyethylene glycol (PEG 6,000) in 1 mM Tris-HCl, pH 7.4 was added to each tube, the contents vortexed, the tubes allowed to stand for 15 min at 4° C., and centrifuged for 10 in at 1500 xg at 4° C. The supernatant solution was carefully aspirated off, the pellet suspended in 2.5 ml of cold 10% PEG in 0.1M Tris-HCl, pH 7.4, containing 0.5% SDS and 1 mM EDTA). The mixture was transferred to counting vials and 10 ml of Aquassure (NEN) was added to each vial. The vials were vigorously shaken and radioactivity determined using a Beckman beta counter. The radioactivity bound in the presence of 20 μg/ml (50-200 cpm) unlabeled PDBu was considered to be nonspecific and all data were corrected accordingly.
The loss of the ability of ^3 H-PDBu to bind to receptors in the presence of ligand was used as the measure of inhibiting activity. PDBu binding inhibition assays were performed as described above, except the test materials were added to the reaction mixture and binding measured as described above.
The PBIA of ligand was equated with that of PDBu by the use of the term ng equivalent calculated from a plot of [^3 H]PDBu bound versus the log molar concentration for several biologically active phorbol esters (2). The curve corresponding to PDBu inhibition of PDBu binding was used by reading the molar concentration corresponding to the percent of control binding of [^3 H]PDBu in the presence of ligand to obtain the units ng PDBu equivalent of ligand.

Assay [2] concerns arachidonic acid cascade. The experiment in a line: Stimulation of arachidonic acid cascade: release of radioactivity from cells labeled with radioactive arachidonic acid. Format: cell-based. An excerpt: (§1) The release of radioactivity into the medium from cells previously labeled with radioactive arachidonic acid was used as a measure of activation of eicosanoids pathway. […] PBIL from all sources inhibited PDBu-receptor interaction.

Assay [3] deals with purified phorboid receptor (serine-protein kinase). Kind of assay: Protein kinase activity of purified phorboid receptor. Format: biochemical, murine. The procedure:
In the final volume of 0.25 ml, the reaction mixture in duplicate contained 5 μmol Tris-HCl (pH 7.4), 1 μmol MgCl2, 50 μg histone, 0.12 nmol [-^32 P] ATP (8×10^6 cpm at arrival) and an appropriate amount of purified receptor protein. The reaction was carried out for 15 min at 23° C. The phosphorylated proteins were precipitated with 5% cold TCA, using BSA (250 μg) as carrier. The mixture in the tubes was allowed to settle at 4° C. for 15-30 min. Precipitates were collected on cellulose nitrate filters (0.45 μm) and washed with 75 ml of cold 5% TCA. Filters were dried and counted in Betafluor scintillation fluid.
Purified phorboid receptor from murine brain was purified to homogeneity and shown that the purified receptor is a serine-protein kinase (Shoyab, Cell Proliferation (CSH Laboratory) (1984) 11:253-262). The effect of PBIL on this protein kinase was tested. […] At higher concentration the kinase activity was inhibited (Table 4).
The assay conditions were the same as described in the text except the indicated amount of PBIL and 25 ng of purified receptor protein (Shoyab, Cell Proliferation (CSH Laboratory) (1984) 11:253-262) were used.

Assay [4] relates to arachidonic acid cascade in mink lung cells. Kind of assay: Activation of arachidonic acid cascade in mink lung cells. Type of assay: cell-based.
Description: as §1

[5] abbreviates: concentration 0.4 (unit not given).
The mark [6] stands for this setting: concentration 0.2 (unit not given).
The mark [7] stands for this setting: concentration 0.8 (unit not given).

Molecules are shown by their SMILES. Where “and” joins values, the source holds several entries; their conditions need not be identical. Identical values can stand only once.

As for `CCCCCCCCCCCCCC(=O)OCC(COC(=O)CCCCCCCCCCCCC)OC(=O)CCCCCCCCCCCCC` [Trimystrin, reference compound], in assay [1] (setting [5]), the “Inhibition of binding of PDBu to its receptor” value (shortened to “Inhibition of binding of PDBu”) was found to be 15%.

For `CCCCC/C=C\C/C=C\C/C=C\C/C=C\CCCC(=O)OCC(O)CO` (stereo not drawn) [1-Monoarachidonin, 1-monoarachidonin], the “Stimulation of arachidonic acid cascade (release of radioactivity into the medium)” value (“Stimulation of arachidonic acid cascade” below) in assay [2] is reported as “stimulate the arachidonic acid cascade”. In addition, the “Inhibition of / competition for PDBu binding to receptor (in words)” value (“Inhibition of / competition” for short) in assay [1] is on record as “compete with phorbol dibutyrate for its receptor”. Besides, the “Inhibition of binding of PDBu” value in assay [1] (setting [6]) is 41%; in assay [1] (setting [5]) it was 91%; in assay [1] (setting [7]), 95%.

Regarding `CCCCCCCC/C=C\CCCCCCCC(=O)OCC(CO)OC(=O)CCCCCCC/C=C\CCCCCCCC` (stereo not drawn) [1,2-Diolein, reference compound], in assay [1] (setting [7]), the “Inhibition of binding of PDBu” value worked out at 20%.

For `CCCCCCCCCCCC(=O)OCC(COC(=O)CCCCCCCCCCC)OC(=O)CCCCCCCCCCC` [Trilaurin, reference compound], in assay [1] (setting [5]), the “Inhibition of binding of PDBu” value stood at 11%.

Take `CCCCC/C=C\C/C=C\CCCCCCCC(=O)O` [Linoleic acid-Na, reference compound]: the “Inhibition of binding of PDBu” value in assay [1] (setting [5]) is 10%; in assay [1] (setting [7]), 15%.

As to `CCCCCCCCCCCCCCCC(=O)OCC(O)COC(=O)CCCCCCCCCCCCCCC` [1,3-Dipalmitin, reference compound], the “Inhibition of binding of PDBu” value in assay [1] (setting [7]) is listed as -12%.

As for `OCC(O)CO` [Glycerol, reference compound], the “Inhibition of binding of PDBu” value in assay [1] (setting [5]) is listed as 0%.

For the compound `CCCCCCCC/C=C\CCCCCCCC(=O)OCC(O)COC(=O)CCCCCCC/C=C\CCCCCCCC` [1,3-Diolein, reference compound], in assay [1] (setting [7]), the “Inhibition of binding of PDBu” value amounted to 11%.

For `CCCCCCCCCCCCCC(=O)OCC(O)CO` (stereo not drawn) [1-Monomyristin, reference compound], the “Inhibition of binding of PDBu” value in assay [1] (setting [5]) turned out to be 0%.

Take `CCCCCCCCCCCCCCCC(=O)OCC(COC(=O)CCCCCCCCCCCCCCC)OC(=O)CCCCCCCCCCCCCCC` [Tripalmitin, reference compound]: the entries for the “Inhibition of binding of PDBu” value in assay [1] (setting [5]) and in assay [1] (setting [7]) were -11% and -8%, respectively.

Consider `CC/C=C\C/C=C\C/C=C\CCCCCCCC(=O)OCC(O)CO` (stereo not drawn) [1-Monolinolenin, 1-monolinolenin], for which the figures for the “Inhibition of binding of PDBu” value in assay [1] (setting [6]), in assay [1] (setting [5]) and in assay [1] (setting [7]) were 27%, 74% and 94%, respectively.

For the compound `CCCCCCCCCCCCCCCC(=O)OCC(O)CO` (stereo not drawn) [1-Monopalmitin, 1-monopalmitin], the “Inhibition of binding of PDBu” value in assay [1] (setting [7]) is -6% and -15%.

On to `CCCCCCCCCCCCCC(=O)O[C@@H]1[C@@H](C)[C@@]2(O)[C@@H](C=C(CO)C[C@]3(O)C(=O)C(C)=C[C@@H]23)[C@@H]2C(C)(C)[C@]12OC(C)=O` [TPA, 12-0-tetradecanoylphorbol-13-acetate], for which the “Stimulation of protein kinase activity (in words)” value in assay [3] is given as “stimulated the kinase activity”.

On to `CCCCCCCC/C=C\CCCCCCCC(=O)OCC(O)CO` (stereo not drawn) [1-Monoolein, 1-monoolein], for which the “Inhibition of binding of PDBu” value in assay [1] (setting [5]) came out at 21%; in assay [1] (setting [7]), 63%.

Consider `CCCCCC/C=C\CCCCCCCC(=O)OCC(O)CO` (stereo not drawn) [1-Monopalmitolein, 1-monopalmitolein], for which, in assay [2], the “Stimulation of arachidonic acid cascade” value is recorded as “stimulate the arachidonic acid cascade”. Besides, the “Inhibition of / competition” value in assay [1] was “compete with phorbol dibutyrate for its receptor”. The “Inhibition of binding of PDBu” value in assay [1] (setting [5]) is recorded as 36%; in assay [1] (setting [7]), 82%.

For `CCCCC/C=C\C/C=C\CCCCCCCC(=O)OC[C@@H](O)CO` [1-Monolinolein, 1-monolinolein], the “Stimulation of arachidonic acid cascade” value in assay [2] was “stimulate the arachidonic acid cascade”. Also, in assay [4], the “Activation of arachidonic acid cascade” value was “activated the arachidonic acid cascade in mink lung cells in a dose- and time-dependent manner”. Further, the “Inhibition of / competition” value in assay [1] was “compete with phorbol dibutyrate for its receptor”. In addition, the “Inhibition of binding of PDBu” value in assay [1] (setting [6]) is 39%; in assay [1] (setting [5]), 82%; in assay [1] (setting [7]), 94%.

Consider `CCCCC/C=C\C/C=C\CCCCCCCC(=O)OCC(O)COC(=O)CCCCCCC/C=C\C/C=C\CCCCC` [1,3-Dilinolein, reference compound], for which the “Inhibition of binding of PDBu” value in assay [1] (setting [7]) worked out at 15%.

For the compound `CCCCC/C=C\C/C=C\CCCCCCCC(=O)OCC(COC(=O)CCCCCCC/C=C\C/C=C\CCCCC)OC(=O)CCCCCCC/C=C\C/C=C\CCCCC` [Trilinolein, reference compound], the “Inhibition of binding of PDBu” value in assay [1] (setting [7]) is reported as -1%.

`CCCCCCCCCCCCCC(=O)OCC(O)COC(=O)CCCCCCCCCCCCC` [1,3-Dimyristin, reference compound]: in assay [1] (setting [5]), the “Inhibition of binding of PDBu” value was 1%.

(Values after patent publication US5077312A, “Biologically active lipids binding membrane receptors” (priority 1990, dated 1991).)
